Reference: ChEMBL document CHEMBL1201862, “PubChem BioAssay data set” (2004)
Activity calls are given as the source filed them.

Tests used:
Beta-galactosidase = Beta-galactosidase (Escherichia coli, UniProt Q8VNN2); experiment: Dose response counterscreen for EBI2 assay utilizing the enzyme, b-galactosidase.; assay type: functional
[1] = target: T1, Long-chain-fatty-acid--AMP ligase FadD28 (Mycobacterium tuberculosis, UniProt P9WQ59); experiment: Fluorescence polarization aasay to screen for inhibitors that compete for the binding of FadD28 to a bisubstrate Measured in Biochemical System Using Plate Reader - 2147-01_Inhibitor_Dose_CherryPick_Activity.; assay type: functional, Mycobacterium tuberculosis H37Rv
T1 sequence (P9WQ59 whole entry): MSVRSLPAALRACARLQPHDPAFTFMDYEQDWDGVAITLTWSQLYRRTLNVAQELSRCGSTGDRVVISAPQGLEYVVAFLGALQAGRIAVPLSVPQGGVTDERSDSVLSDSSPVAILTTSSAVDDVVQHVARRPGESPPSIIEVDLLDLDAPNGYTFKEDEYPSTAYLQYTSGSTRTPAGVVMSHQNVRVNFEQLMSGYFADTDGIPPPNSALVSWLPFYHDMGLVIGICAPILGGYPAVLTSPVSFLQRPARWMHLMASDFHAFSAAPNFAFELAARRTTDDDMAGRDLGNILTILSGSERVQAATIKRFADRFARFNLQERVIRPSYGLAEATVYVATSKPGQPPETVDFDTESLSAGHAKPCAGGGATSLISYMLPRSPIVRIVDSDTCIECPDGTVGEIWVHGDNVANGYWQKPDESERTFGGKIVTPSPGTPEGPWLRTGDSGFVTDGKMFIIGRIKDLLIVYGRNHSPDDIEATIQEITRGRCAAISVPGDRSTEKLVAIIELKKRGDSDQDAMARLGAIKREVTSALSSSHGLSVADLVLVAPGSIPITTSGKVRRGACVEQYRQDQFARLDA

[2] = target: T2, Heat shock factor protein 1 (Mus musculus, UniProt P38532); experiment: decrease of HSF1-responsive luciferase luminescence – cell-based, NIH3T3, dose retest, confirmation (AID 2382); assay type: functional;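 note: NIH3T3 fibroblasts with HSF1-driven luciferase reporter stressed by proteasome inhibitor MG132; luminescence from HSF1-driven luciferase expression after 8 hours of MG132 stress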
T2 sequence (P38532 whole entry): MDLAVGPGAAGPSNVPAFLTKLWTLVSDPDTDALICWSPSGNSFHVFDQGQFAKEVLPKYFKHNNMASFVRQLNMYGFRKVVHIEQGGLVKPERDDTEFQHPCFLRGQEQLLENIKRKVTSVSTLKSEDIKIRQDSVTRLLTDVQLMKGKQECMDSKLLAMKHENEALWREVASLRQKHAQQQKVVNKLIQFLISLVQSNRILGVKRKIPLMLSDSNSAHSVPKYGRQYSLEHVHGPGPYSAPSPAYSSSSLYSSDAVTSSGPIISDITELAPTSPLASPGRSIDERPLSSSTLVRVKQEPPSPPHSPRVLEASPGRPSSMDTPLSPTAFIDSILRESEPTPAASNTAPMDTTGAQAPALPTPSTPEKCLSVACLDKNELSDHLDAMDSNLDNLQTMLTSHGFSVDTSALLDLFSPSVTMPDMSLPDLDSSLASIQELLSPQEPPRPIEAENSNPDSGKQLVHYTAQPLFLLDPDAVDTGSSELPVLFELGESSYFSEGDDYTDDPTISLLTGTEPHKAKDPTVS

[3] = target: Heat shock protein HSP 90-alpha (Homo sapiens, UniProt P07900); assay type: functional, organism-based
[4] = target: T3, Histone-lysine N-methyltransferase NSD2 (Homo sapiens, UniProt O96028); assay type: biochemical
T3 sequence (O96028 whole entry): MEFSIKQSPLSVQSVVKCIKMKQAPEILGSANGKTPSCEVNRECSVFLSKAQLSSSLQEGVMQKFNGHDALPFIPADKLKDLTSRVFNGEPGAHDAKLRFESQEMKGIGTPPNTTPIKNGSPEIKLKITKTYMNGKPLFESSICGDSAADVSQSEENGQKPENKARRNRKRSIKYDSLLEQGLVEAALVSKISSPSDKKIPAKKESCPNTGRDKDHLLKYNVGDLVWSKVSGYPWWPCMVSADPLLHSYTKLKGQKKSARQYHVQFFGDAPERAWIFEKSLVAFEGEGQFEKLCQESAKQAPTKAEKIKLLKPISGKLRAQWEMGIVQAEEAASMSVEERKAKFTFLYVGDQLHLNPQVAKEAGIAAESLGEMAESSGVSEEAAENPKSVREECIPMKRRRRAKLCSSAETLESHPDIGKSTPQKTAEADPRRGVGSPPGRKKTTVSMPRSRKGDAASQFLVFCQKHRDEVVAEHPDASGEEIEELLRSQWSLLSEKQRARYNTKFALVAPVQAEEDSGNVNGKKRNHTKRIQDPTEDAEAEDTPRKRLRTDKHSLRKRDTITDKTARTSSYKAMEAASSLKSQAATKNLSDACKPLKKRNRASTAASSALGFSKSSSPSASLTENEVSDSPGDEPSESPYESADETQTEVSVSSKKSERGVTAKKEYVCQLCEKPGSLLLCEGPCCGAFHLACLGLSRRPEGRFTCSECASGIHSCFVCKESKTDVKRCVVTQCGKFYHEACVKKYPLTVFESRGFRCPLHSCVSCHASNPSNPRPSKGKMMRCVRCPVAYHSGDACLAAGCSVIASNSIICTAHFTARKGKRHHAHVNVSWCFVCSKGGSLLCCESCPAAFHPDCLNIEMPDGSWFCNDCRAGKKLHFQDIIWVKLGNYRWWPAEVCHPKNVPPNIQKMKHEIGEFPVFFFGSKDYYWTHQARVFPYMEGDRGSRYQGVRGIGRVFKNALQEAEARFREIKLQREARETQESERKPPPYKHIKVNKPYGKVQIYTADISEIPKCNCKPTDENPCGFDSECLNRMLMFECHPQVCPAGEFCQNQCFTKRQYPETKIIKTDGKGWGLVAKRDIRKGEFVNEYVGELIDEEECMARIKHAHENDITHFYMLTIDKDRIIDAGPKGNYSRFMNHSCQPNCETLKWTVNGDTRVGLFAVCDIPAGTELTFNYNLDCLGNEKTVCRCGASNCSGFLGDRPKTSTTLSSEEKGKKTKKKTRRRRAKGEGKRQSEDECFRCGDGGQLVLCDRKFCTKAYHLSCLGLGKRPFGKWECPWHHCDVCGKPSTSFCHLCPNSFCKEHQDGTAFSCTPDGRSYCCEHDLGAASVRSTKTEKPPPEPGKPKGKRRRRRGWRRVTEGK

cells [5] = assay type: functional, cell-based
[6] = system: Streptococcus sp. 'group A'; experiment: Streptococcus pyogenes SK(-)GAS viability under kanamycin – luminescence, BacTiterGlo, confirmation, counter-screen for streptokinase expression inhibitor project, dose response (AID 1900); assay type: functional, organism-based
Vero = experiment: cells; assay type: functional; settings: Chlorocebus sabaeus
Streptococcus = experiment: GAS UMAA2166 growth inhibition – luminescence, BacTiterGlo, counter-screen for streptokinase expression inhibitor project, dose response (AID 1915); assay type: functional, organism-based;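 note: potency for reduction of bacterial viability or growth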
[7] = fluconazole-exposed Candida albicans growth modulators – fluorescence, retest, confirmation (AID 2467); assay type: functional, cell-based
[8] = NIH-3T3 fibroblast cytotoxicity, dose response, cytotoxicity control, cell-based, fluorescence, Alamar Blue, secondary assay (AID 2327); assay type: functional;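 note: NIH-3T3 mouse fibroblasts cultured with fluconazole at 8 µg/mL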
Caspase-6 = target: T4, Caspase-6 (Homo sapiens, UniProt P55212); experiment: inhibition of CASP6 peptide cleavage – biochemical, VEID-R110 fluorescence, cherry-pick, dose response (AID 720632)
T4 sequence (P55212 whole entry): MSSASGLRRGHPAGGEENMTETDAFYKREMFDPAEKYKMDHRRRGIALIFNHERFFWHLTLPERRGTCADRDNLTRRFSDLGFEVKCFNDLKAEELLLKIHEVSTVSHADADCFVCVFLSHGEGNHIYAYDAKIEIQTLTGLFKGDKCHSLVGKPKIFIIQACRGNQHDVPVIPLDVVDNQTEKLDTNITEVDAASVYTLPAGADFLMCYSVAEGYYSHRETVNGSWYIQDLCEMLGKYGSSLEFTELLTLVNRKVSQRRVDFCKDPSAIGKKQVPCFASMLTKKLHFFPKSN

cells [9] = assay type: functional, cell-based; remark: listed apart in the source
Nonstructural protein 1 = Nonstructural protein 1 (Influenza A virus, UniProt Q194T2); assay type: functional, Influenza A virus (A/California/07/2009(H1N1))
[10] = off-target signal loss in HeLa-CEM21 co-culture – HeLa F-luc CTL cells, cherry-picked, counter-screen for HIV-1 Env fusion inhibitor project, dose response (AID 652040); assay type: functional, cell-based;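 note: potency for signal decrease marking cytotoxic or nonspecific inhibition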
[11] = blockers of HIV-1 envelope-mediated cell-cell fusion – cherry-pick, dose response (AID 652057); assay type: functional, cell-based
[12] = blockers of HIV-1 ZM109 envelope-driven cell-cell fusion – HeLa effector, CEM target cells, luciferase, cherry-pick, dose response (AID 652058); assay type: functional, cell-based;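 note: luciferase signal from HIV-1 Env mediated cell-cell fusion of effector and target cells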
[13] = HIV-1 AD8 envelope cell-cell fusion blockers – cherry-pick, dose response (AID 652062); assay type: functional, cell-based;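 note: luciferase signal from cell-cell fusion driven by HIV-1 clade B AD8 Env; potency is for inhibitors of fusion seen as a drop in luminescence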
[14] = viability loss in CEM21 cells – cell-based, CellTiter-Glo luminescence, cherry-picked, cytotoxicity control for viral fusion inhibitor project, dose response (AID 652042); assay type: functional;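 note: potency for signal decrease meaning cytotoxicity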
[15] = target: T5, Rac GTPase-activating protein 1 (Homo sapiens, UniProt Q9H0H5); experiment: blockers of MgcRacGAP-driven Rac1 GTP hydrolysis – biochemical, ADP Hunter fluorescence, primary and confirmatory, confirmation (AID 624330); assay type: functional
T5 sequence (Q9H0H5 whole entry): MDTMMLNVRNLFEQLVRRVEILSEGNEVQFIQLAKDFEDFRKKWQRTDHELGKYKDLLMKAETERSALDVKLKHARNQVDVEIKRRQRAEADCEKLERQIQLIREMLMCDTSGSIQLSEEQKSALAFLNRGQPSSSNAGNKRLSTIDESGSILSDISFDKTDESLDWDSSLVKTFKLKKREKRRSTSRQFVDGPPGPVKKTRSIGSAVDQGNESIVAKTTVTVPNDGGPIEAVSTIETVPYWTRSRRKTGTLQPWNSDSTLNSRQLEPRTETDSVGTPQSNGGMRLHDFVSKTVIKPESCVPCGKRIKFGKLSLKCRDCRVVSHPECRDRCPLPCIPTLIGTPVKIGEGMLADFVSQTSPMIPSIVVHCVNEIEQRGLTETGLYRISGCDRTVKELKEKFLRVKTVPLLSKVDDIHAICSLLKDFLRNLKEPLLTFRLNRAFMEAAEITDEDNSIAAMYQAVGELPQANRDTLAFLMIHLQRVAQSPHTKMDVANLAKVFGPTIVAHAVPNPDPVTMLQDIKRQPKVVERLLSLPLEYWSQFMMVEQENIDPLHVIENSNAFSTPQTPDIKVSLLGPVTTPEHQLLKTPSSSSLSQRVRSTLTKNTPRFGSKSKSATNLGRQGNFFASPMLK

[16] = T. cruzi growth inhibition in host cells, dose response, cell-based, plate reader, dry powder, set 2 (AID 652275); assay type: functional
P388/ADR = experiment: cells; assay type: functional; settings: Mus musculus
P388 = experiment: cells; assay type: functional; settings: Mus musculus
SN12K1 = experiment: cells; assay type: functional; settings: Homo sapiens
Fatty acid synthase [17] = target: T6, Fatty acid synthase (Homo sapiens, UniProt P49327); experiment: inhibition of human FAS-TE enzyme activity – biochemical, endpoint fluorescence intensity, uHTS hits, dose response (AID 624327); assay type: functional;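 note: fluorescence from hydrolysis of an O-methyl fluorescein acyl ester substrate by the enzyme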
Fatty acid synthase [18] = target: T6, Fatty acid synthase; experiment: inhibition of human FAS-TE enzyme activity – biochemical, kinetic fluorescence intensity, dose response (AID 624326); assay type: functional;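 note: rate of fluorescence rise from hydrolysis of a fluorogenic O-methyl fluorescein ester substrate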

Sequence of Beta-galactosidase (Q8VNN2 whole entry): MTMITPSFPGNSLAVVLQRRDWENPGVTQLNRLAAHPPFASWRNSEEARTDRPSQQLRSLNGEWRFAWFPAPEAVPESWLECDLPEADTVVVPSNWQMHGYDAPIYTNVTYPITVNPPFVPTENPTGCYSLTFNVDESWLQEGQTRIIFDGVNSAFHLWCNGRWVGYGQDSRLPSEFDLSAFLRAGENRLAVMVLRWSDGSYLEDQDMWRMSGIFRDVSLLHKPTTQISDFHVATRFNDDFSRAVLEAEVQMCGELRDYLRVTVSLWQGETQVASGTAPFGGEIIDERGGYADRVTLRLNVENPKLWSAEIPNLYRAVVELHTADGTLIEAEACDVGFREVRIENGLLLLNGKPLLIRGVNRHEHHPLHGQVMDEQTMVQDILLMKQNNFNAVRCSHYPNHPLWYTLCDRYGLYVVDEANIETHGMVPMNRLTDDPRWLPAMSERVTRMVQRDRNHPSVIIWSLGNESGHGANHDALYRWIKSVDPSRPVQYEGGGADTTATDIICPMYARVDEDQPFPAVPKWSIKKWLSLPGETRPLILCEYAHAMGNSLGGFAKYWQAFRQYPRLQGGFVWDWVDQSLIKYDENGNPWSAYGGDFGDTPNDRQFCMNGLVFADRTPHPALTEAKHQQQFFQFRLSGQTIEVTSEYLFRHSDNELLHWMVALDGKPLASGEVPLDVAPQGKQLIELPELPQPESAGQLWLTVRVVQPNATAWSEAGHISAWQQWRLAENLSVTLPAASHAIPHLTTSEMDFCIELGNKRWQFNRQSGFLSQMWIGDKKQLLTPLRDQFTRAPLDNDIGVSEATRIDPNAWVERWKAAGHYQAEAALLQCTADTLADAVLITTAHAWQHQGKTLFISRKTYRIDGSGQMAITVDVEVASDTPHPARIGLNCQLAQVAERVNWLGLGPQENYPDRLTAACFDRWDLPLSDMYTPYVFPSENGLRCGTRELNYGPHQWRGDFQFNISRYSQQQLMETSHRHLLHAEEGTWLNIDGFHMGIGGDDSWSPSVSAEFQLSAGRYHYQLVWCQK
T6 sequence (P49327 whole entry): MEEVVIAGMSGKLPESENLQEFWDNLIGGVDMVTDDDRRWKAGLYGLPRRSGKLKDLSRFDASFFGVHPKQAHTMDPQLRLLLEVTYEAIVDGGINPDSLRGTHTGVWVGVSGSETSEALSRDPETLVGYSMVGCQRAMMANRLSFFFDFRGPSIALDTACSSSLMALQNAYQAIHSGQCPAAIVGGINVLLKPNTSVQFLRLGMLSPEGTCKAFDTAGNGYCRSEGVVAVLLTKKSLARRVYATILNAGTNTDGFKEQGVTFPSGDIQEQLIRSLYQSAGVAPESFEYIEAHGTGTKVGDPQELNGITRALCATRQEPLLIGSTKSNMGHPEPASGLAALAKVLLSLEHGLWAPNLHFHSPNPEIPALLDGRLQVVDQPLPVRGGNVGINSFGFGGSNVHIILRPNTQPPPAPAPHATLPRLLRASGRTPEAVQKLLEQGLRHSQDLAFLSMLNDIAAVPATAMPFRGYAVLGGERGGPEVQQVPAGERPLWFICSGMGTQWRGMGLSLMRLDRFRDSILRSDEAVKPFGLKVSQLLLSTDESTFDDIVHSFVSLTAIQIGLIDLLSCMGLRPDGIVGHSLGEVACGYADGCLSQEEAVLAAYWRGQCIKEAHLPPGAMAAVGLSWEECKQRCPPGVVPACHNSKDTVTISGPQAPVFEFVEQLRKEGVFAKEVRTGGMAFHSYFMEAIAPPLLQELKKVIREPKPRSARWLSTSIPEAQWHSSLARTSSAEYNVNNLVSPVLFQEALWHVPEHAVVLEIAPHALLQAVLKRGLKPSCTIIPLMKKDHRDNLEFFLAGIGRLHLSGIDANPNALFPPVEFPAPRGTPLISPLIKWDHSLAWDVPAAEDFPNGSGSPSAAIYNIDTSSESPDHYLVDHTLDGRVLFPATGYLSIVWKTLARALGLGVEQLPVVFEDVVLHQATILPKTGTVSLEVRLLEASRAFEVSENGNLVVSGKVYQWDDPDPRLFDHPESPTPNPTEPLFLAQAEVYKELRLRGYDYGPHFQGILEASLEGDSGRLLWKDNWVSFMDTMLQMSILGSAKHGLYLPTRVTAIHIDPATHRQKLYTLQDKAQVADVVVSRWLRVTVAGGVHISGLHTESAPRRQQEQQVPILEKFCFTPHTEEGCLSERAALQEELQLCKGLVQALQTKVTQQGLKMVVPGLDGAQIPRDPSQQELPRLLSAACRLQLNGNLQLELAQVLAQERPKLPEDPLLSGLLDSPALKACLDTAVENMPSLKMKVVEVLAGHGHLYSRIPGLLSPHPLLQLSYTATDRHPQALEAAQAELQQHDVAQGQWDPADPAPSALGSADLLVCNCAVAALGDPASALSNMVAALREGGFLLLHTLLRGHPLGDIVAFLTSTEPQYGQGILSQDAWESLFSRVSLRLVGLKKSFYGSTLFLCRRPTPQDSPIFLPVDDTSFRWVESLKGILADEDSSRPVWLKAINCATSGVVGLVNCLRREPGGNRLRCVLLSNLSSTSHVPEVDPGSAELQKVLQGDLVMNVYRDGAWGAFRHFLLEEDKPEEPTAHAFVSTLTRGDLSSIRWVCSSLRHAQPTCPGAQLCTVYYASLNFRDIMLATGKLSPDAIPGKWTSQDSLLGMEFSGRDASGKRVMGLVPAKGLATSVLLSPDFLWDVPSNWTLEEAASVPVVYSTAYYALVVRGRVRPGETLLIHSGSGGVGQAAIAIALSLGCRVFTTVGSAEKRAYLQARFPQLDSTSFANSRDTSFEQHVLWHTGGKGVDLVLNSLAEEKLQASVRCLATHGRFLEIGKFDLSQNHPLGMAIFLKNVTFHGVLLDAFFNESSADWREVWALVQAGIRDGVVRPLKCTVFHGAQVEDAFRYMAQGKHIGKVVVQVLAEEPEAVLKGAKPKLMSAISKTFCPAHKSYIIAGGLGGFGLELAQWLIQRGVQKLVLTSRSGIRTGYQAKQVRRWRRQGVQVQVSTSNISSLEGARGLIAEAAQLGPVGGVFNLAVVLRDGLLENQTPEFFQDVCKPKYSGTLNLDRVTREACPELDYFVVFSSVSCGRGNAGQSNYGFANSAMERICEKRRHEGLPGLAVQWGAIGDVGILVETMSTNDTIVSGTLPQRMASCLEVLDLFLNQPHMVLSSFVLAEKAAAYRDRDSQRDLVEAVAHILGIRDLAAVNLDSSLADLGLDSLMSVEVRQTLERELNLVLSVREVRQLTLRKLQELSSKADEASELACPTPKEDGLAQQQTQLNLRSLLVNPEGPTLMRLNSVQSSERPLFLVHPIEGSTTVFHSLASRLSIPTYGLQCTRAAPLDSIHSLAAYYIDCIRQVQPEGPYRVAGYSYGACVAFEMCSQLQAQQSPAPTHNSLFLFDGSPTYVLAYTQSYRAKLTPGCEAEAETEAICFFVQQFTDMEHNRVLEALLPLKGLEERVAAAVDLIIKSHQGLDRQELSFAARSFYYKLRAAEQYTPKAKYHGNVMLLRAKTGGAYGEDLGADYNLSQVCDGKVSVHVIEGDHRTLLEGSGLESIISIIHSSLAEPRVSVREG
Sequence of Nonstructural protein 1 (Q194T2 whole entry, the tested form may be a part): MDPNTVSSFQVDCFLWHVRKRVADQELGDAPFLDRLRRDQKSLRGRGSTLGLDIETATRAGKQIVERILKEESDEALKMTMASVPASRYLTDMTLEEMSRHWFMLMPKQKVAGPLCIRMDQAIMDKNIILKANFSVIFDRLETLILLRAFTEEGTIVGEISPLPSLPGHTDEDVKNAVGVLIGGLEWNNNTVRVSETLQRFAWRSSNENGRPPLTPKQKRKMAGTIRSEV

## Cc1ccc(NN=C(S)Nc2ccc(C(C)C)cc2)c(C)c1
Beta-galactosidase
  IC50: 66.1 µM (inactive)

## O=C(CN1C(=O)NC2(CCOc3ccccc32)C1=O)c1ccc(Br)cc1 (stereo not given)
[1]
  AC50: 98.9 µM (active)

## Cc1ccc2oc(=O)c3cnn(CC(=O)N(Cc4ccco4)C4CCCCC4)c3c2c1
Beta-galactosidase
  IC50: > 80 µM (inactive)

## COc1ccccc1N=Nc1ccc(O)c2ncccc12
[2]
  EC50: 2.29 µM (active)
[3]
  AC50: 3.68 µM (active)
[4]
  AC50: 11.8 µM (active)
Cells [5]
  EC50: 102 µM (active)
[6]
  EC50: 1.17 µM (active)
Vero
  CC50: 12.2 µM (active)
Streptococcus
  EC50: 10.3 µM (active)
[7]
  EC50: 1.28 µM (active)
[8]
  EC50: > 160 µM (inactive)
Caspase-6
  AC50: 34.5 µM (active)
Cells [9]
  EC50: 38.7 µM (active)
Nonstructural protein 1
  IC50: 12.4 µM (active)

## O=C(Nc1cccc(F)c1)c1cc(S(=O)(=O)N2CCC(C(=O)O)CC2)ccc1F
[10]
  AC50: 28.9 µM (active)

## O=C(CN(Cc1ccccc1F)S(=O)(=O)c1ccc(Cl)cc1)NCCC1=CCCCC1
[11]
  AC50: 4.11 µM (active)
[12]
  AC50: 4.59 µM (active)
[13]
  AC50: 25.6 µM (active)
[10]
  AC50: 6.77 µM (active)

## Cc1onc(-c2ccccc2)c1C(=O)NC(=S)NNC(=O)c1ccc(O)cc1
[14]
  AC50: 67.3 µM (active)
[6]
  EC50: 0.547 µM (active)
[13]
  AC50: 10.5 µM (active)
Streptococcus
  EC50: 9.46 µM (active)

## Cc1ccc(OCC(=O)N2CCN(Cc3ccc([N+](=O)[O-])cc3)CC2)cc1
Beta-galactosidase
  IC50: > 80 µM (inactive)
[15]
  IC50: 163 µM (active)

## COc1cc(/C=C2\C(=O)NN(c3ccc(C)cc3)C2=O)cc([N+](=O)[O-])c1O
[1]
  AC50: 86.9 µM (active)

## CCOC(=O)[C@]12CCC=C1N(Cc1ccc3c(c1)OCO3)C(=O)[C@H](CC(=O)NCC13CC4CC(CC(C4)C1)C3)C2
[11]
  AC50: 16.5 µM (active)
[14]
  AC50: 34 µM (active)
[12]
  AC50: 22.7 µM (active)

## C[C@H]1CN([C@@H](C)CO)C(=O)c2cccc(NC(=O)c3ccncc3)c2O[C@@H]1CN(C)Cc1ccc(Cl)cc1
[16]
  AC50: 0.00712 µM (active)

## CC(C)(C)[S+]([O-])N1Cc2cc(C(=O)NCc3ccc4c(c3)OCO4)nc(-c3cccc(C#CCC4CCCC4)c3)c2[C@H]1CCO (stereo not given in full)
[16]
  AC50: 1.01 µM (active)

## CC(C)(C)[S@+]([O-])N1Cc2cc(C(=O)NCc3ccc4c(c3)OCO4)nc(-c3cccc(-c4ccncc4)c3)c2[C@@H]1CCO
[16]
  AC50: 0.152 µM (active)

## COC1C(O)C(C)OC(OC2C(Oc3cccc4c(O)c5c(=O)oc6ccc(C)c7c(=O)oc(c34)c5c67)OC(C)C(O)C2O)C1O (stereo not given)
P388/ADR
  GI50: 7.08 µM (inactive)
[4]
  AC50: > 20 µM (inactive)
P388
  GI50: 0.598 µM (active)
SN12K1
  GI50: 0.593 µM (active)

## CC1=C(O)C(=O)C(c2c(C)cc(C)c(Br)c2C)=C(O)C1=O
Fatty acid synthase [17]
  IC50: 10.8 µM (active)
Fatty acid synthase [18]
  IC50: 9.46 µM (active)
[1]
  AC50: 51.8 µM (active)
